Test results reported in US7375135B2, “Fatty acid derivatives; preparation and uses thereof” (Genfit, priority 2001, dated 2008).

Legend:
[1] = Plasma insulin and glucose balance in Zucker rats; format: in vivo, rat; conditions: 300 mg/kg/d
Text: (§1) Male C57BL/6 mice (Charles River, L'Arbresle, France) aged 6 weeks at the start of the experiments were randomly divided into groups of 6 animals such that body weight distribution was uniform. Mice were given a low-fat diet (UAR AO4), a high-fat diet (29% (m/m) coconut oil) or the same enriched diet supplemented with the test compounds. Obese male Zucker rats (fa/fa) or non obese rats (fa/+) aged 5 or 21 weeks (Charles River, L'Arbresle, France) were divided into groups of 8 animals selected such that the distribution of plasma cholesterol and triglyceride levels was uniform, and maintained on a standard diet. Animals were housed in a 12 hour light/dark cycle at a constant temperature of 20° C.±3° C. Animals had access to food and water ad libitum. Food intake and weight increase were recorded. The test compounds were suspended in carboxymethylcellulose and administered by gastric lavage at the indicated doses, once a day for 15 days. At the end of treatment, some animals underwent a glucose tolerance test as described hereinbelow. At the end of the experiment the other animals were weighed and sacrificed under anesthesia after a 5 hour fast. Blood was collected on EDTA. Plasma was prepared by centrifugation at 3000 rpm for 20 minutes. Liver samples were removed and stored frozen in liquid nitrogen for subsequent analysis.
Blood glucose was determined by a colorimetric enzymatic assay (Sigma Aldrich, St Louis, Mo., USA).
Insulinemia was assayed on serum or plasma collected on EDTA.

PPARα = PPARα activation in vitro in HepG2 cells (Gal4 DNA binding domain / PPARα ligand binding domain chimera); format: cell-based; conditions: dose-dependent, FIG. 11
Experimental: Plasmids pG5TkpGL3, pGal4-hPPARα, pGal4-hPPARγ and pGal4-φ have been described previously (Raspé et al., J. Lipid Res. 40, 2099-2110, 1999). The pGal4-mPPARα and pGal4-hPPARδ constructs were obtained by cloning PCR-amplified DNA fragments corresponding to the DEF domains of the mouse PPARα and human PPARδ nuclear receptors into the pGal4-φ vector.
HepG2 and RK13 cells were from ECACC (Porton Down, UK) and were grown in DMEM medium supplemented with 10% (VN) fetal calf serum, 100 U/ml penicillin (Gibco, Paisley, UK) and 2 mM L-glutamine (Gibco, Paisley, UK). The culture medium was replaced every two days. Cells were kept at 37° C. in a humidified 5% CO2/95% air atmosphere.
HepG2 and RK13 cells seeded in 24-well culture dishes at a rate of 10^5 cells/well for HepG2 cells and 5×10^4 cells/well for RK13 cells were transfected for 2 hours with the reporter plasmid pG5TkpGL3 (10 ng/well), the expression vectors pGal4-φ, pGal4-mPPARα, pGal4-hPPARα, pGal4-hPPARγ, pGal4-hPPARδ (10 ng/well) and the transfection efficiency control vector pRL-null (Promega Madison, Wis., USA) (20 ng/well) according to the protocol previously described (Raspé et al., J. Lipid Res. 40, 2099-2110, 1999) and incubated for 36 hours with the test compounds. […]

[2] = tested on: hepatic expression of ACO, CPT-I, CPT-II, Apo AI, Apo CIII genes; experiment: Hepatic gene expression (RT-PCR) in treated Sprague-Dawley rats; format: in vivo, rat; conditions: 300 mg/kg/d
Experimental: (§2) Sprague-Dawley or Wistar rats weighing 200 to 230 g (Charles River, L'Arbresle, France) were housed in a 12-hour light/dark cycle at a constant temperature of 20±3° C. After a 1-week acclimatization period, rats were weighed and distributed into groups of 8 animals selected such that the distribution of plasma cholesterol and triglyceride levels was uniform. The test compounds were suspended in carboxymethylcellulose and administered by gastric lavage at the indicated doses, once a day for 15 days. Animals had access to food and water ad libitum. At the end of the experiments, animals were weighed and sacrificed under anesthesia after a 5-hour fast. Blood was collected on EDTA. Plasma was isolated by centrifugation at 3000 rpm for 20 minutes. Liver samples were removed and stored frozen in liquid nitrogen until further analysis.
(§3) Total RNA was isolated from the liver fragments by extraction with a mixture of guanidine thiocyanate/phenol acid/chloroform as previously described (Raspé et al., J. Lipid Res. 40, 2099-2110, 1999). Messenger RNA was quantified by semi-quantitative or quantitative RT-PCR with the Light Cycler Fast Start DNA Master Sybr Green I kit (Hoffman-La Roche, Basel, Switzerland) on a Light Cycler System (Hoffman-La Roche, Basel, Switzerland). Primer pairs specific for the ACO, Apo CIII, Apo AI, CPT-I and CPT-II genes were used as probes. Primer pairs specific for the 36B4, β-actin and GAPDH genes were used as control probes (see table I).

[3] = Glucose tolerance test in Zucker rats; format: in vivo, rat; conditions: 300 mg/kg/d
Text: as §1
Insulinemia was assayed on serum or plasma collected on EDTA. […]

[4] = Plasma lipids and their distribution in lipoparticles in Sprague-Dawley rats; format: in vivo, rat; conditions: 300 mg/kg/d
Experimental: as §2
(§4) Lipid concentrations in plasma (total cholesterol and free cholesterol, triglycerides and phospholipids) were determined by a colorimetric assay (Bio-Mérieux, Marcy I'Etoile, France) according to the supplier's instructions. Plasma concentrations of apolipoproteins AII, AI and CIII were determined as previously described (Raspé et al., J. Lipid Res. 40, 2099-2110, 1999, Asset G et al., Lipids, 34, 39-44, 1999).
To separate the lipoproteins according to size, 300 μl of plasma were loaded on a Sepharose 6HR 10/30 column (Pharmacia, Uppsala, Sweden) and eluted at a constant flow rate (0.2 ml/minute) in PBS (pH 7.2). Optical density of the eluent was recorded at 280 nm. 0.3 ml fractions were collected. Lipid concentrations in the different fractions were determined by a colorimetric assay (Bio-Mérieux, Marcy I'Etoile, France) according to the supplier's instructions.

[5] = Plasma cholesterol and triglycerides in Zucker rats; format: in vivo, rat
Text: as §1
Plasma lipid concentrations (total cholesterol and triglycerides) were determined by a colorimetric assay (Bio-Mérieux, Marcy l'Etoile, France) according to the supplier's instructions.

ABCA1 gene expression = experiment: ABCA1 and LXRα gene expression in human macrophages; format: cell-based; conditions: compound solubilized according to example 6, dose-dependent, FIG. 12
Experimental: THP-1 monocytes (ATCC, Rockville, Md., USA) were placed in 6-well culture dishes in the presence of PMA (phorbol myristate acetate) and fetal calf serum and incubated at 37° C. for 48 hours to allow them to differentiate to macrophages.
To obtain primary macrophages, mononuclear cells were isolated from human blood as previously described (Chinetti et al. Nat. Medecine 7(1), 53-58, 2001), placed in 6-well culture dishes and grown for 10 days in the presence of human serum to enable adherence and differentiation of the primary monocytes to macrophages.
Treatment with the different compounds was carried out for 48 hours in medium without human or fetal calf serum but supplemented with 1% Nutridoma HU serum (Boehringer).
Total RNA was extracted from treated macrophages with the mini RNeasy kit (Qiagen, Hilden, Germany) according to the supplier's instructions, assayed by spectrometry and quantified by quantitative RT-PCR with the Light Cycler Fast DNA Master Green I kit (Hoffman-La Riche, Basel, Switzerland) on a Light Cycler System (Hoffman-La Riche, Basel, Switzerland). Primer pairs specific for the ABCA1 and LXRα genes were used as probes.

[6] = Plasma cholesterol and triglycerides in Wistar rats; format: in vivo, rat; conditions: 300 mg/kg/d, after 14 days of treatment
Experimental: as §2, with “The test compounds were suspended in carboxymethylcellulose and administered by gastric lavage at the indicated doses, once a day for 15 days.” left out
as §4

[7] = tested on: hepatic expression of the ACO gene; experiment: Hepatic ACO gene expression in treated Wistar rats; format: in vivo, rat; conditions: 300 mg/kg/d, FIG. 9C
Experimental: as §2
as §3, with “Primer pairs specific for the 36B4, β-actin and GAPDH genes were used as control probes (see table I).” left out

## CCCCCCCCCCCCCCSCC(=O)OCC(COC(=O)CSCCCCCCCCCCCCCC)OC(=O)CSCCCCCCCCCCCCCC [Example 4a, 1,2,3-tritetradecylthioacetylglycerol]
[1]; FIG. 7
  plasma glucose levels: glucose levels were equivalent in the two groups
[1]; concluded from insulin and glucose levels
  insulin sensitivity: increased insulin sensitivity
[1]; especially after 14 days, FIG. 7
  plasma insulin levels (gradual compensatory increase versus control group): said increase was slower
PPARα
  PPARα activation in vitro: very strong activation of the PPARα nuclear receptor
[2]; FIG. 5A
  hepatic expression of ACO: strong activation of hepatic expression of ACO
  hepatic expression of CPT-I: smaller increase in the expression of the genes CPT-I and CPT-II
  hepatic expression of CPT-II: smaller increase in the expression of the genes CPT-I and CPT-II
[2]; FIG. 5B
  hepatic Apo AI expression: slight decrease in hepatic Apo AI expression
  hepatic Apo CIII expression: more marked decrease in Apo CIII expression
[3]; FIG. 8
  plasma insulin levels during a glucose tolerance test: used less insulin in response to the glucose injection
[3]; concluded from glucose tolerance test
  insulin sensitivity: increase in insulin sensitivity
[4]; FIG. 2A
  cholesterol distribution in lipoparticles (size exclusion chromatography): decrease in cholesterol in the different lipoparticle classes
[4]; FIG. 2B
  total plasma cholesterol levels: reduction of total plasma cholesterol levels
[4]; FIG. 3A
  triglyceride distribution in lipoparticles (size exclusion chromatography): decrease in triglycerides in this lipoparticle class
[4]; FIG. 3B
  plasma triglyceride levels: reduction of plasma triglyceride levels
[4]; FIG. 4A
  phospholipid distribution in lipoparticles (size exclusion chromatography): decrease in phospholipids in the different lipoparticle classes
[4]; FIG. 4B
  total plasma phospholipid levels: reduction of total plasma phospholipid levels
[5]; 300 mg/kg/d, FIG. 6A
  total plasma cholesterol (gradual increase versus control group): said increase was slower
[5]; 300 mg/kg/d, FIG. 6B
  plasma triglycerides (gradual increase versus control group): said increase was markedly slower
[5]; doses of 0 to 600 mg/kg/d, FIG. 10
  plasma triglyceride levels, dose-effect relation: gradual dose-dependent decrease in triglyceride levels
ABCA1 gene expression
  ABCA1 gene expression: very strong activation of ABCA1 gene expression

## CCCCCCCCCCCCCCCC(=O)OCC(COC(=O)CCCCCCCCCCCCCCC)OC(=O)CSCCCCCCCCCCCCCC [Example 4g, 1,3-dipalmitoyl-2-tetradecylthioacetylglycerol]
[6]; FIG. 9A
  plasma cholesterol: decrease in circulating cholesterol and triglyceride levels
[6]; FIG. 9B
  plasma triglycerides: decrease in circulating cholesterol and triglyceride levels
[7]
  hepatic expression of the ACO gene: marked activation of hepatic expression of the ACO gene
